Reference: ChEMBL document CHEMBL1201862, “PubChem BioAssay data set” (2004)
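These data come from cells grown in 96-well plates and exposed to compound for 48 hours at five concentrations. GI50 = concentration required for 50% inhibition of growth.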 Activity calls are given as the source filed them. Cut-off read from the data, not from the text of the source: active = GI50 up to about 1.1 µM and inactive = higher.

What was measured:
Experiment in all cases: NCI-60 cell line screen, 48 h
UACC-62 = tested on: UACC-62
SN12C = tested on: SN12C
SK-MEL-28 = tested on: SK-MEL-28
OVCAR-3 = tested on: OVCAR-3
COLO 205 = tested on: COLO 205
BT-549 = tested on: BT-549
SR = tested on: SR
ACHN = tested on: ACHN
TK-10 = tested on: TK-10
NCI-H522 = tested on: NCI-H522
NCI-H460 = tested on: NCI-H460
MCF7 = tested on: MCF7
SK-OV-3 = tested on: SK-OV-3
NCI/ADR-RES = tested on: NCI/ADR-RES
SNB-19 = tested on: SNB-19
UO-31 = tested on: UO-31
OVCAR-8 = tested on: OVCAR-8
RXF 393 = tested on: RXF 393
MDA-N = tested on: MDA-N
NCI-H23 = tested on: NCI-H23
IGROV-1 = tested on: IGROV-1
RPMI-8226 = tested on: RPMI-8226
SK-MEL-5 = tested on: SK-MEL-5
786-0 = tested on: 786-0
SF-295 = tested on: SF-295
OVCAR-5 = tested on: OVCAR-5
SF-268 = tested on: SF-268
SF-539 = tested on: SF-539
HCT-15 = tested on: HCT-15
K562 = tested on: K562
HL-60 = tested on: HL-60
HT-29 = tested on: HT-29
Malme-3M = tested on: Malme-3M
T47D = tested on: T47D
SK-MEL-2 = tested on: SK-MEL-2
M14 = tested on: M14
MOLT-4 = tested on: MOLT-4
CCRF-CEM = tested on: CCRF-CEM
CAKI-1 = tested on: CAKI-1
U-251 = tested on: U-251
MDA-MB-231 = tested on: MDA-MB-231
SW-620 = tested on: SW-620
KM12 = tested on: KM12
MDA-MB-435 = tested on: MDA-MB-435
A549 = tested on: A549
PC-3 = tested on: PC-3
Hs-578T = tested on: Hs-578T
UACC-257 = tested on: UACC-257
HOP-62 = tested on: HOP-62
HCC 2998 = tested on: HCC 2998
EKVX = tested on: EKVX
A498 = tested on: A498
DU-145 = tested on: DU-145
SNB-75 = tested on: SNB-75
OVCAR-4 = tested on: OVCAR-4
HCT-116 = tested on: HCT-116
NCI-H226 = tested on: NCI-H226
HOP-92 = tested on: HOP-92
LOX IMVI = tested on: LOX IMVI

Question: How did the GI50 (UACC-62) turn out when CO[C@]12C[C@H](CNC(=O)c3cc(Br)c(Br)[nH]3)O[C@H]1NC(=O)N2 was run?
Answer: The GI50 was > 100 µM (inactive).

Question: And the GI50 (SN12C)?
Answer: Its GI50 is > 100 µM (inactive).

Question: And the GI50 (SK-MEL-28)?
Answer: Its GI50 is > 100 µM (inactive).

Question: And the GI50 (OVCAR-3)?
Answer: Its GI50 is > 100 µM (inactive).

Question: And the GI50 (COLO 205)?
Answer: Its GI50 is > 100 µM (inactive).

Question: What about the GI50 (BT-549) of the same molecule?
Answer: The GI50 was > 100 µM (inactive).

Question: And the GI50 (DU-145)?
Answer: Its GI50 is > 100 µM (inactive).

Question: And the GI50 (SR)?
Answer: The GI50 was > 100 µM (inactive).

Question: And the GI50 (ACHN)?
Answer: The GI50 was > 100 µM (inactive).

Question: What about the GI50 (SNB-75) of the same molecule?
Answer: The GI50 was > 100 µM (inactive).

Question: What about the GI50 (TK-10) of the same molecule?
Answer: Its GI50 is > 100 µM (inactive).

Question: What about the GI50 (NCI-H522) of the same molecule?
Answer: The GI50 was > 100 µM (inactive).

Question: And the GI50 (NCI-H460)?
Answer: The GI50 was > 100 µM (inactive).

Question: What about the GI50 (MCF7) of the same molecule?
Answer: The GI50 was > 100 µM (inactive).

Question: And the GI50 (SK-OV-3)?
Answer: The GI50 was > 100 µM (inactive).

Question: And the GI50 (OVCAR-4)?
Answer: The GI50 was > 100 µM (inactive).

Question: What about the GI50 (NCI/ADR-RES) of the same molecule?
Answer: The GI50 was > 100 µM (inactive).

Question: And the GI50 (SNB-19)?
Answer: Its GI50 is > 100 µM (inactive).

Question: And the GI50 (UO-31)?
Answer: The GI50 was > 100 µM (inactive).

Question: What about the GI50 (OVCAR-8) of the same molecule?
Answer: The GI50 was > 100 µM (inactive).

Question: What about the GI50 (NCI-H23) of the same molecule?
Answer: The GI50 was > 100 µM (inactive).

Question: What about the GI50 (IGROV-1) of the same molecule?
Answer: The GI50 was > 100 µM (inactive).

Question: And the GI50 (RPMI-8226)?
Answer: Its GI50 is > 100 µM (inactive).

Question: What about the GI50 (HCT-116) of the same molecule?
Answer: The GI50 was > 100 µM (inactive).

Question: And the GI50 (SK-MEL-5)?
Answer: Its GI50 is > 100 µM (inactive).

Question: And the GI50 (786-0)?
Answer: Its GI50 is > 100 µM (inactive).

Question: What about the GI50 (SF-295) of the same molecule?
Answer: Its GI50 is > 100 µM (inactive).

Question: And the GI50 (OVCAR-5)?
Answer: The GI50 was > 100 µM (inactive).

Question: And the GI50 (SF-268)?
Answer: Its GI50 is > 100 µM (inactive).

Question: And the GI50 (SF-539)?
Answer: Its GI50 is > 100 µM (inactive).

Question: What about the GI50 (HCT-15) of the same molecule?
Answer: The GI50 was greater than 100 µM.

Question: What about the GI50 (K562) of the same molecule?
Answer: The GI50 was > 100 µM (inactive).

Question: What about the GI50 (HL-60) of the same molecule?
Answer: Its GI50 is > 100 µM (inactive).

Question: What about the GI50 (HT-29) of the same molecule?
Answer: The GI50 was > 100 µM (inactive).

Question: What about the GI50 (Malme-3M) of the same molecule?
Answer: The GI50 was > 100 µM (inactive).

Question: And the GI50 (T47D)?
Answer: Its GI50 is > 100 µM (inactive).

Question: What about the GI50 (SK-MEL-2) of the same molecule?
Answer: Its GI50 is > 100 µM (inactive).

Question: What about the GI50 (M14) of the same molecule?
Answer: Its GI50 is > 100 µM (inactive).

Question: And the GI50 (NCI-H226)?
Answer: The GI50 was > 100 µM (inactive).

Question: What about the GI50 (HOP-92) of the same molecule?
Answer: Its GI50 is 25.2 µM (inactive).

Question: What about the GI50 (MOLT-4) of the same molecule?
Answer: The GI50 was > 100 µM (inactive).

Question: What about the GI50 (CCRF-CEM) of the same molecule?
Answer: Its GI50 is 0.548 µM (active).

Question: What about the GI50 (CAKI-1) of the same molecule?
Answer: The GI50 was > 100 µM (inactive).

Question: And the GI50 (U-251)?
Answer: The GI50 was > 100 µM (inactive).

Question: What about the GI50 (MDA-MB-231) of the same molecule?
Answer: The GI50 was > 100 µM (inactive).

Question: And the GI50 (SW-620)?
Answer: Its GI50 is > 100 µM (inactive).

Question: What about the GI50 (KM12) of the same molecule?
Answer: The GI50 was > 100 µM (inactive).

Question: And the GI50 (MDA-MB-435)?
Answer: The GI50 was > 100 µM (inactive).

Question: And the GI50 (A549)?
Answer: The GI50 was > 100 µM (inactive).

Question: And the GI50 (PC-3)?
Answer: The GI50 was > 100 µM (inactive).

Question: And the GI50 (Hs-578T)?
Answer: Its GI50 is > 100 µM (inactive).

Question: And the GI50 (UACC-257)?
Answer: The GI50 was > 100 µM (inactive).

Question: What about the GI50 (LOX IMVI) of the same molecule?
Answer: The GI50 was > 100 µM (inactive).

Question: What about the GI50 (HOP-62) of the same molecule?
Answer: Its GI50 is > 100 µM (inactive).

Question: What about the GI50 (HCC 2998) of the same molecule?
Answer: Its GI50 is > 100 µM (inactive).

Question: What about the GI50 (EKVX) of the same molecule?
Answer: The GI50 was > 100 µM (inactive).

Question: And the GI50 (A498)?
Answer: Its GI50 is > 100 µM (inactive).
